Here are results for two substances from publication PMC5667506, “Potent and selective inhibition of SH3 domains with dirhodium metalloinhibitors” (Chemical Science, 2015).

“And” between values parts separate entries of the source, which are not always exact repeats. Equal values may be shown once. Rh2(OAc)3 = dirhodium(II) triacetate, bound to the side-chain carboxylate

In assay [1] the target is T1, Lyn SH3 domain (Homo sapiens, UniProt P07948).
T1 construct: The lyn SH3 domain was amplified by PCR using Phusion DNA polymerase; GST (N, cleaved yes); made in house; host or cells: E. coli BL21 (DE3)
T1 sequence (P07948 62-121): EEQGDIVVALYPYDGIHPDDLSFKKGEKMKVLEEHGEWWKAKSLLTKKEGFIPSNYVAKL
Put plainly: ITC binding of metallopeptides to Lyn SH3 domain. An excerpt: The His96 is unique among Src-family sequences, and the His78 appears only in Hck and Lck. Individual amino-acid alterations are the only factors that might distinguish the nearly identical secondary structures and peptide-binding preferences of Src-family SH3 domains (cf. Fig. 1a and b). Based on a Src-family SH3-binding sequence (VSL12),[37] known to bind with similar affinity across Src-family SH3 domains,[38] we made metallopeptides with rhodium in different sites near the beginning of the SH3-binding peptide. […] The optimal metallopeptide, S2E^Rh, bound to Lyn with 6 nM affinity. The accuracy of ITC data is reduced for C values >1000 (C = [protein]/K d). Under these conditions the distribution of data points on the isotherm reduces the precision of the global fit. Since the enthalpic contributions to binding in the formation of the complexes described in this work were high, we were able to use a low protein concentration (4 μM) which ensured that our C values were well below this upper range. […] In broad terms, the thermodynamics—favourable enthalpy and unfavourable entropy—are consistent with previous examinations of peptide–SH3 binding (see Table S1 ^† for thermodynamic data).[39] Moving the location of the rhodium center toward the N-terminus, away from the histidine, led to a drop in binding affinity. The N13D^Rh metallopeptide, a convenient negative control with the rhodium center too far for histidine interactions, binds with micromolar activity, similar to simple SH3 binding of the parent peptide. We conclude that the vast affinity improvement is due to rhodium coordination to unique histidine residue(s).
All chemical reagents were purchased from Sigma-Aldrich and were used without further purification.
Peptide synthesis. All peptides were synthesized manually or with an AAPPTEC APEX 396 Automated Multipeptide Synthesizer using standard solid-phase Fmoc protocols.1,2 Peptides were prepared as C-terminal amides using Rink amide MBHA resin (AAPPTEC) and were acetylated at the N-terminus prior to cleavage from the resin. Peptides and metallopeptides were purified by reverse-phase HPLC.
HPLC separation. Reverse-phase HPLC was performed on a Shimadzu CBM-20A instrument with Phenomenex Jupiter 4μ Proteo 90A (250 × 15 mm preparative) and Phenomenex Jupiter 4μ Proteo 90A (250 × 4.6 mm analytical) columns. The columns were eluted with a gradient of acetonitrile in water (10-90%) (flow rates of 8 mL/min and 1 mL/min for preparative and analytical columns, respectively). Trifluoroacetic acid (0.1%) was added to all eluents. […]
ITC analysis. ITC experiments were carried out on a VP-ITC instrument (MicroCal) at 25 °C. Titrations of 275 μM peptide into 18 μM SH3 domain proteins were used for all titrations, except for the titration of S2ERh into Lyn SH3 domain, where the lower concentrations of 69 µM S2ERh peptide and 4 µM Lyn SH3 were used to attain a c-value for the titration within the accepted limts for ITC experiments ([…]).3
Heats of dilutions were measured independently for each experiment by titrating 275 μM peptide into buffer (20 mM phosphate buffer, pH 7, 150 mM NaCl, 1 mM EDTA). All experimental data were fitted using a one set of sites binding model in Origin software (MicroCal) except for the data with Hck SH3 domain. With Hck only, the non-peptide specific binding of dirhodium tetraacetate to Hck SH3 domain could not be treated as negligible, despite the very weak interaction (88 µM), due to the larger enthalpy contribution observed for non-specific binding to this SH3 domain, so the titrations of peptide into Hck were fitted using a 2 set of sites binding model where the stoichiometry for the second set of sites was fixed at 2.0. […]
Mass spectrometry. ESI-MS was performed on a Bruker Daltonics micrOTOF instrument.
Known compounds and proteins. Several metallopeptides (S2ERh, L3ERh, R5ERh, and 13DRh) were reported previously and […]

Assay [2] concerns the target T2, Full-length Lyn kinase (GST-tagged Lyn B) (Homo sapiens, UniProt P07948).
T2 construct: Full-length Lyn kinase (74 nM) was treated with substrate peptide and ATP; purchased Promega
Put plainly: Lyn kinase activation assay (ADP-Glo Kinase Assay). Type of assay: biochemical. The settings on record: 74 nM Lyn, 5 min. As to the method:
We examined phosphorylation of a peptide substrate at low enzyme concentration (0.074 μM) and short reaction time (t = 5 min) to minimize the alternative autophosphorylation activation pathway (Fig. 6). Kinase activation with traditional ligands has typically required high ligand concentrations (∼1 mM) to overcome the intramolecular nature of the SH3–kinase domain interaction.
Fig. 6 Activation of Lyn kinase activity by a metallopeptide, S2E^Rh, and the parent peptide, S2E. […] Full-length Lyn kinase (74 nM) was treated with substrate peptide and ATP. Kinase activity was measured after 5 min in an adaptation of reported methods.[5] See ESI ^† for details.
All chemical reagents were purchased from Sigma-Aldrich and were used without further purification. […]
Kinase assay. ATP turnover by Lyn was measured using the ADP-GloTM Kinase Assay (Promega) according to the manufacturer’s protocol. Briefly, final concentrations of 72 μM ATP, 74 nM Lyn (GST-tagged Lyn B), and 240 μM substrate peptide (all from Promega) were combined in buffer (40 mM Tris, 50 μM dithiothreitol, 2 mM MnCl2 and 0.1 mg/mL BSA at pH 7.5) with a solution of the desired treatment (or control) in the same buffer for a final reaction volume of 5 µL. The kinase reaction was allowed to proceed at room temp. for 5 min from addition of ATP before the start of the ADP-Glo protocol halted the reaction. Chemiluminescence data were acquired on a Tecan Infinite M1000 microplate reader in white 384 well low volume plates (Corning Costar 3674) with an integration time of 250 ms per well. […]
(In general: In ADP-Glo the light output rises with the ADP produced.)

T2 sequence (P07948 1-491 isoform P07948-2): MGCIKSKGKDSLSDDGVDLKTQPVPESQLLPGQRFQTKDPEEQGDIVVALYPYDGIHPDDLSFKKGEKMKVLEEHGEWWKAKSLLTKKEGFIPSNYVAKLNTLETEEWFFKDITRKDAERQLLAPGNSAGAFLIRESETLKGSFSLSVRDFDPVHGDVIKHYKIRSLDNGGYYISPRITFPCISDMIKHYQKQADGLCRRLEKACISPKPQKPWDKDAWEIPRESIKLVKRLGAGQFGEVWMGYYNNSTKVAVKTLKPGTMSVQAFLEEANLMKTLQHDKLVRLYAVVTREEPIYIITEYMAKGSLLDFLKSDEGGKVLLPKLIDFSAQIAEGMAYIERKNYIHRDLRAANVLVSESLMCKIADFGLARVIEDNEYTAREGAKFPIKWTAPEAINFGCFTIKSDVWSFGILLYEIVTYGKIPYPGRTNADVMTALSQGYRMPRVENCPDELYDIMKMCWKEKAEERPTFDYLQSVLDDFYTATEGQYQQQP

As for AcVELARRPLPPLPN-NH2 [S2E^Rh], the Stoichiometry in assay [1] worked out at 1.1. In assay [1] (25 °C), the “-TΔS” value amounted to 2.7 kcal/mol, the ΔG is -11.2 kcal/mol and the ΔH result is “–13.9 kcal mol-1”. In assay [1] (25 °C, listed as S2ERh), this substance came in with a ΔH of -13.9 kcal/mol. Moreover, in assay [2], the “concentration above which slight activation is seen” value is given as “above 100 μM”, the “concentration at which complete activation response was achieved” value turned out to be 630 nM and the “concentration giving strong Lyn activation” value came out at 200 nM.
In the case of “AcVELARRPLPPLPN-NH2 (Ac-VE(Rh2(OAc)3)LARRPLPPLPN-NH2; also: metal complex: Glu2 carboxylate bound to dirhodium(II) triacetate) [S2E^Rh, rhodium(II) metallopeptide made from S2E peptide (Ac…-NH2) and Rh2(tfa)(OAc)3]”, the equilibrium dissociation constant (Kd) in assay [1] (25 °C) was 6 nM and 6.1 nM.

In general, Kd refers to the constant that tells how readily two partners part at equilibrium. A high value points to lower affinity.
